Assay results: patent EP0620225B1, “Cephalosporin derivatives” (Basilea Pharmaceutica AG, priority 1993, dated 1994)
Converted amounts (≈) assume the structure as drawn.

How the values were obtained:
Acinetobacter sp.51-156 = experiment: Antibacterial spectrum (MIC), agar dilution; format: cell-based; conditions: SP.51156, read-out: MIC
Method: (§1) In vitro activity was determined by minimum inhibitory concentration in a microorganism spectum by the agar dilution method in Mueller Hinton agar.

B.fragilis ATCC25285 = experiment: Antibacterial spectrum (MIC), agar dilution; format: cell-based; conditions: Bacteroides fragilis, read-out: MIC
Method: as §1

C.difficile ZH1 = experiment: Antibacterial spectrum (MIC), agar dilution; format: cell-based; conditions: Clostridioides difficile, read-out: MIC
Method: as §1

C.freundii 43 = experiment: Antibacterial spectrum (MIC), agar dilution; format: cell-based; conditions: Citrobacter freundii, read-out: MIC
Method: as §1

C.freundii 902 = experiment: Antibacterial spectrum (MIC), agar dilution; format: cell-based; conditions: Citrobacter freundii, read-out: MIC
Method: as §1

E.cloacae 908R = experiment: Antibacterial spectrum (MIC), agar dilution; format: cell-based; conditions: Enterobacter cloacae, read-out: MIC
Method: as §1

E.cloacae 908SSi = experiment: Antibacterial spectrum (MIC), agar dilution; format: cell-based; conditions: Enterobacter cloacae, read-out: MIC
Method: as §1

E.coli 25922 = experiment: Antibacterial spectrum (MIC), agar dilution; format: cell-based; conditions: Escherichia coli, read-out: MIC
Method: as §1

E.faecalis 6 = experiment: Antibacterial spectrum (MIC), agar dilution; format: cell-based; conditions: Enterococcus faecalis, read-out: MIC
Method: as §1

H.influenzae 1 = experiment: Antibacterial spectrum (MIC), agar dilution; format: cell-based; conditions: Haemophilus influenzae, read-out: MIC
Method: as §1

K.pneumoniae 418 = experiment: Antibacterial spectrum (MIC), agar dilution; format: cell-based; conditions: Klebsiella pneumoniae, read-out: MIC
Method: as §1

L.monocytogenes BK23 = experiment: Antibacterial spectrum (MIC), agar dilution; format: cell-based; conditions: Listeria monocytogenes, read-out: MIC
Method: as §1

M.catarrhalis RA21 = experiment: Antibacterial spectrum (MIC), agar dilution; format: cell-based; conditions: Moraxella catarrhalis, read-out: MIC
Method: as §1

M.morganii 6H-137 = experiment: Antibacterial spectrum (MIC), agar dilution; format: cell-based; conditions: Morganella morganii, 6H137, read-out: MIC
Method: as §1

N.meningitidis 69480 = experiment: Antibacterial spectrum (MIC), agar dilution; format: cell-based; conditions: Neisseria meningitidis, read-out: MIC
Method: as §1

P.aeruginosa 27853 = experiment: Antibacterial spectrum (MIC), agar dilution; format: cell-based; conditions: Pseudomonas aeruginosa, read-out: MIC
Method: as §1

P.asaccharolyticus 29743 = experiment: Antibacterial spectrum (MIC), agar dilution; format: cell-based; conditions: Peptoniphilus asaccharolyticus, read-out: MIC
Method: as §1

P.mirabilis 2117 = experiment: Antibacterial spectrum (MIC), agar dilution; format: cell-based; conditions: Proteus mirabilis, read-out: MIC
Method: as §1

P.vulgaris 1028 = experiment: Antibacterial spectrum (MIC), agar dilution; format: cell-based; conditions: Proteus vulgaris, read-out: MIC
Method: as §1

S.agalactiae QK44 = experiment: Antibacterial spectrum (MIC), agar dilution; format: cell-based; conditions: Streptococcus agalactiae, read-out: MIC
Method: as §1

S.aureus 6538 = experiment: Antibacterial spectrum (MIC), agar dilution; format: cell-based; conditions: Staphylococcus aureus, read-out: MIC
Method: as §1

S.aureus 734 MRSA = experiment: Antibacterial spectrum (MIC), agar dilution; format: cell-based; conditions: Staphylococcus aureus, read-out: MIC
Method: as §1

S.marcescens 69438 = experiment: Antibacterial spectrum (MIC), agar dilution; format: cell-based; conditions: Serratia marcescens, read-out: MIC
Method: as §1

S.pneumoniae Q19 = experiment: Antibacterial spectrum (MIC), agar dilution; format: cell-based; conditions: Streptococcus pneumoniae, read-out: MIC
Method: as §1

S.pyogenes B15 = experiment: Antibacterial spectrum (MIC), agar dilution; format: cell-based; conditions: Streptococcus pyogenes, read-out: MIC
Method: as §1

S.viridans group 016 = experiment: Antibacterial spectrum (MIC), agar dilution; format: cell-based; conditions: Streptococcus viridans, read-out: MIC
Method: as §1

X.maltophilia 1AC739 = experiment: Antibacterial spectrum (MIC), agar dilution; format: cell-based; conditions: Stenotrophomonas maltophilia, read-out: MIC
Method: as §1

S.aureus MSSA = experiment: In vitro activity against selected species (MIC50, MIC90, range); format: cell-based; conditions: Staphylococcus aureus, medium MHB (Mueller Hinton Broth)
S.pneumoniae PEN-R = experiment: as above; format: cell-based; conditions: Streptococcus pneumoniae; for MIC: MIC range
E.faecalis = experiment: as above; format: cell-based; conditions: Enterococcus faecalis, medium MHA
Method: as §1

S.aureus MRSA = experiment: as above; format: cell-based; conditions: Staphylococcus aureus, medium MHA (Mueller Hinton Agar) +NaCl
Method: as §1

E.faecium = experiment: In vitro activity against selected species (MIC50, range); format: cell-based; conditions: Enterococcus faecium, medium MHA
Method: as §1

Escherichia coli 25922 = experiment: Efficacy against systemic infections (septicemia) in mice; format: in vivo; conditions: 96 h, survival day 4
Summary of the method: (§2)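 Swiss albino mice (16–20 g) infected i.p. with 4–10× the 48-h LD50 of each strain; compound given p.o. or s.c. at 1 and 3 h post-challenge, plus 5 h for P. aeruginosa BA. Five mice per group; ED50 (mg/kg) by probit analysis of day-4 survival.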

S.aureus Smith = experiment: as above; format: in vivo; conditions: Staphylococcus aureus, 96 h, sc 1 and 3 h after challenge, survival day 4
Summary of the method: as §2

[1] = medium IsoB (Isosensitest Broth)

Molecule CO/N=C(\C(=O)N[C@@H]1C(=O)N2C(C(=O)O)=C(CSc3nc(=O)c(=O)[nH]n3C)CS[C@H]12)c1csc(N)n1 [Ceftriaxone, [6R-[6 α,7 β(Z)]]-7-[[(2-Amino-4-thiazolyl)(methoxyimino)acetyl]amino]-8-oxo-3-[[(1,2,5,6-tetrahydro-2-methyl-5,6-dioxo-1,2,4-triazin-3-yl)thio]methyl]-5-thia-1-azabicyclo[4.2.0]oct-2-ene-2-carboxylic acid, reference compound] has an MIC (Acinetobacter sp.51-156) of 32 µg/mL (≈ 57.7 µM), an MIC (B.fragilis ATCC25285) of 16 µg/mL (≈ 28.9 µM) and an MIC (C.difficile ZH1) of over 32 µg/mL. For the same molecule, the MIC (C.freundii 43) was 32 µg/mL (≈ 57.7 µM), the MIC (C.freundii 902) was 0.25 µg/mL (≈ 0.451 µM) and the MIC (E.cloacae 908R) was over 32 µg/mL. For the same molecule, the MIC (E.cloacae 908SSi) was 0.25 µg/mL (≈ 0.451 µM), the MIC (E.coli 25922) was at most 0.06 µg/mL and the MIC (E.faecalis 6) was over 32 µg/mL. For the same molecule, the MIC (H.influenzae 1) was under 0.06 µg/mL, the MIC (K.pneumoniae 418) was at most 0.06 µg/mL and the MIC (L.monocytogenes BK23) was over 16 µg/mL. For the same molecule, the MIC (M.catarrhalis RA21) was 1 µg/mL (≈ 1.8 µM), the MIC (M.morganii 6H-137) was at most 0.06 µg/mL and the MIC (N.meningitidis 69480) was under 0.01 µg/mL. It also gave an MIC (P.aeruginosa 27853) of 16 µg/mL (≈ 28.9 µM), an MIC (P.asaccharolyticus 29743) of 0.25 µg/mL (≈ 0.451 µM) and an MIC (P.mirabilis 2117) of at most 0.06 µg/mL. It also gave an MIC (P.vulgaris 1028) of 0.12 µg/mL (≈ 0.216 µM), an MIC (S.agalactiae QK44) of at most 0.06 µg/mL and an MIC (S.aureus 6538) of 4 µg/mL (≈ 7.21 µM). For the same molecule, the MIC (S.aureus 734 MRSA) was over 32 µg/mL, the MIC (S.marcescens 69438) was 0.25 µg/mL (≈ 0.451 µM) and the MIC (S.pneumoniae Q19) was at most 0.06 µg/mL. For the same molecule, the MIC (S.pyogenes B15) was at most 0.06 µg/mL, the MIC (S.viridans group 016) was 0.25 µg/mL (≈ 0.451 µM) and the MIC (X.maltophilia 1AC739) was over 32 µg/mL. For the same molecule, the MIC (S.aureus MSSA; MIC range) was 2 to 16 µg/mL (≈ 3.61 to 28.9 µM), the MIC50 (S.aureus MSSA) was 4 µg/mL (≈ 7.21 µM) and the MIC90 (S.aureus MSSA) was 16 µg/mL (≈ 28.9 µM). For the same molecule, the MIC (S.pneumoniae PEN-R; [1]) was 0.1 to 2 µg/mL (≈ 0.18 to 3.61 µM), the MIC (S.pneumoniae PEN-R; medium IsoB + 20% serum) was 1 to 8 µg/mL and the MIC50 (S.pneumoniae PEN-R; [1]) was 0.5 µg/mL (≈ 0.902 µM). For the same molecule, the MIC90 (S.pneumoniae PEN-R; [1]) was 1 µg/mL (≈ 1.8 µM), the MIC50 (S.pneumoniae PEN-R; medium IsoB + 20% serum) was 4 µg/mL and the MIC50 (E.faecalis) was over 32 µg/mL. For the same molecule, the MIC90 (E.faecalis) was over 32 µg/mL, the MIC (S.aureus MRSA; MIC range) was over 32 µg/mL and the MIC50 (S.aureus MRSA) was over 32 µg/mL. For the same molecule, the MIC90 (S.aureus MRSA) was over 32 µg/mL, the MIC (E.faecium; MIC range) was over 32 µg/mL and the MIC50 (E.faecium) was over 32 µg/mL. It also gave an ED50 (Escherichia coli 25922; Escherichia coli 25922, po (orally) 1 and 3 h after challenge) of 0.9 mg/kg, an ED50 (Escherichia coli 25922; Escherichia coli, E.coli 25922, sc 1 and 3 h after challenge) of at most 0.01 mg/kg and an ED50 (S.aureus Smith) of under 2 mg/kg.
